Laboratory results: patent publication US8119661B2, “Piperidine derivatives and their use as muscarinic receptor modulators” (AstraZeneca AB, priority 2007, dated 2012)

Tested on: SNL rats (heat hyperalgesia)
Assay: Rat SNL heat hyperalgesia assay
Assay type: in vivo
Settings: sc, male Sprague Dawley SNL rats, paw withdrawal latency, morphine s.c. 30 min before testing, example 2 per os 60 min before testing, combination ratio example 2:morphine 1:1.56
Procedure: Rats undergo spinal nerve ligation surgery as described in Kim and Chung (1992) (reference 1). Briefly, rats are anesthetized with isoflurane, the left L5 and L6 are isolated and tightly ligated with 4-0 silk thread. The wound is closed by suturing and applying tissue adhesive. Compound testing is performed at day 9 to day 36 post-surgery.
For behavioral testing, the animals are acclimatized to the test room environment for a minimum of 30 min. In order to assess the degree of hyperalgesia, the animals are placed on a glass surface (maintained at 30° C.), and a heat-source is focused onto the plantar surface of the left paw. The time from the initiation of the heat until the animal withdraws the paw is recorded. Each animal is tested twice (with an interval of 10 min between the two tests). A decrease in Paw Withdrawal Latency (PWL, average of the two tests) relative to naïve animals indicates a hyperalgesic state. The rats with a PWL of at least 2 seconds less than average PWL of Naïve group are selected for compound testing. […]
In order to assess the degree of heat hyperalgesia, the rats were individually placed in Plexiglas boxes on the glass surface (maintained at 30° C.) of a paw thermal stimulator system (Model 390, series 8, IITC Life Science, Woodland Hills, USA) and allowed to acclimate for 30 min. […] Paw withdrawal latencies (PWLs) were calculated as the mean of the two values.

`CC(C)OC(=O)N1CCC(C)(N2CCC(N3C(=O)N[C@H]4CCCC[C@@H]43)CC2)CC1` [Example 02, Propan-2-yl 4-[4-[(3aS,7aS)-2-oxo-3a,4,5,6,7,7a-hexahydro-3H-benzoimidazol-1-yl]-1-piperidyl]-4-methyl-piperidine-1-carboxylate] was tested, and the ED50 was 2.4 µmol/kg.
